Experimental data as given in US20160113932A1, “TREATMENT OF CANCERS USING PI3 KINASE ISOFORM MODULATORS” (INFINITY PHARMACEUTICALS, INC., priority 2013, published 2016).
In brackets after ≈: the same amount, converted by molar mass. Several values for one entry are separate records, joined by “and”; a condition that tells them apart may be missing. Equal values may be shown once. Entries after “also recorded” stand apart in the source; their conditions may differ. Read-outs that look alike come from different tables or passages of the source.

Tests used:
[1] = Plasma protein binding in vitro, rat; assay type: in vitro ADME; details: all concentrations tested
[2] = test system: Toledo; assay: DLBCL cellular growth inhibition assay; assay type: cell-based; details: Homo sapiens
[3] = target: T1, PI3K δ (Homo sapiens, UniProt O00329); assay: PI3K-δ suppression level (IC90) quoted with clinical plasma concentrations
Target sequence in this assay (O00329 whole entry, species assumed): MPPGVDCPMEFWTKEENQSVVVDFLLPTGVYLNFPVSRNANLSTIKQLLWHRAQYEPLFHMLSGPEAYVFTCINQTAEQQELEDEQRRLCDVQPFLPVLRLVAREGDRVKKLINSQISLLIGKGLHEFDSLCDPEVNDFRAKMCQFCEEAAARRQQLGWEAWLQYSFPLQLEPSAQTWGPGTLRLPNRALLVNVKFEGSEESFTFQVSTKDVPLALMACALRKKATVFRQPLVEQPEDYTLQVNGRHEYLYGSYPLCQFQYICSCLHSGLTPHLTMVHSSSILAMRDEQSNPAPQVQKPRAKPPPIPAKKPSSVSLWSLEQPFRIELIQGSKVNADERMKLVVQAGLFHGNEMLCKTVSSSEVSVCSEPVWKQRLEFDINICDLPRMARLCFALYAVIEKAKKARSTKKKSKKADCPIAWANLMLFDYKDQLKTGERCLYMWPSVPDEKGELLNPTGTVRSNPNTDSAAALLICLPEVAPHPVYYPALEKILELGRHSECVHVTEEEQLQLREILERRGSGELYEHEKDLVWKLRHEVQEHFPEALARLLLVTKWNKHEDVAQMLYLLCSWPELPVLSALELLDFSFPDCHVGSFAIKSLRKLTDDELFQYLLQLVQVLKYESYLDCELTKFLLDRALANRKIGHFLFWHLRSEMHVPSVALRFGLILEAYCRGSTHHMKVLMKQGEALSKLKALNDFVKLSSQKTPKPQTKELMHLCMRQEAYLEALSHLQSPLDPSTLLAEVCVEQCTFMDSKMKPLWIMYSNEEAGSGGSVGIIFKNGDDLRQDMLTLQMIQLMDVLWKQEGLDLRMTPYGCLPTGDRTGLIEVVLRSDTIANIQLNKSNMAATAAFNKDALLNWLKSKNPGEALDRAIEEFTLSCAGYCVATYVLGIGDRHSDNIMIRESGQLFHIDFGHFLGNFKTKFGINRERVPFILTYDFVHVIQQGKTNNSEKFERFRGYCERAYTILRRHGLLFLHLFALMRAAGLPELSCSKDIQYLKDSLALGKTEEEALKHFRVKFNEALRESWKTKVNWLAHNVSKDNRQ
Target sequence in this assay (P27986 whole entry partner, species assumed): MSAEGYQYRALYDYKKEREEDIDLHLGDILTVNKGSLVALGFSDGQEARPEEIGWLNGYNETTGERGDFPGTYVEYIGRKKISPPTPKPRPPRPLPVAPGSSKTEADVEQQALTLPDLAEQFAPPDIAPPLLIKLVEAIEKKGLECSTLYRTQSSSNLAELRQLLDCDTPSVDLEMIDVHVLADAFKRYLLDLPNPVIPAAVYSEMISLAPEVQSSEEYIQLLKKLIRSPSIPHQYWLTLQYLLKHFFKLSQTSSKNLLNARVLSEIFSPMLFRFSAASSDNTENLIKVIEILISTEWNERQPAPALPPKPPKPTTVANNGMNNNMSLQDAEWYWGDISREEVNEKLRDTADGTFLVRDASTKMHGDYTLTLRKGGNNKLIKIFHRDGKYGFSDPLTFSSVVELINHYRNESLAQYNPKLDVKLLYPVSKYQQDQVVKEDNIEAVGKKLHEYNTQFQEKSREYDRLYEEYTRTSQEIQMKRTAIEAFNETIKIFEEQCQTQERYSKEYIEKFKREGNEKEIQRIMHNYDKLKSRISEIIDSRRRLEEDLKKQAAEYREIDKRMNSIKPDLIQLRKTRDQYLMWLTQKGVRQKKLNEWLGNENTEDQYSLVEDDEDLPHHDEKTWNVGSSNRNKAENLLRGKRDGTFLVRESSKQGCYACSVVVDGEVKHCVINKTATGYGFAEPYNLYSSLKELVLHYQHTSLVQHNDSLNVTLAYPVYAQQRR

[4] = In vitro genetic toxicity studies
[5] = test system: migration of CLL cells; assay: Chemotaxis assay of CLL cells; assay type: cell-based, human; details: range 2-42%; n=8
From the text: (FIGS. 35 and 36). […] In addition, this direct inhibitory effect on CLL cells in the lymph nodes could lead to rapid and prolonged responses in cancer patients.

[6] = test system: U2932; assay: DLBCL cellular growth inhibition, 72 hour CTG assay; assay type: cell-based; details: Homo sapiens
[7] = test system: CD63 expression on the surface of activated CCR3+ basophils; assay: Basophil activation, ex vivo anti-FcεR1 activation assay, healthy subjects; assay type: in vivo, human; details: single dose administration
[8] = test system: Pfeiffer; assay: DLBCL cellular growth inhibition assay; assay type: cell-based; details: Homo sapiens
[9] = Absolute bioavailability / pharmacokinetics in Beagle dogs; assay type: in vivo; details: Dog, PO, 5 mg/kg
[10] = test system: central nervous system; assay: Neurofunctional study (FOB, motor activity) in Sprague-Dawley rat; assay type: in vivo; details: male rats, 2 h after a 350 mg/kg dose
[11] = Tissue distribution of radiolabelled Compound 292 in rat; assay type: in vivo
[12] = test system: hemodynamic and electrocardiographic parameters; assay: Cardiovascular study in instrumented cynomolgus monkey; assay type: in vivo; details: male cynomolgus monkeys
From the text: Four non-naive, male monkeys implanted with radiotelemetry transmitters were utilized during the conduct of this study.

[13] = In vivo rat micronucleus assay
[14] = test system: respiratory system; assay: Respiratory study in Sprague Dawley rat; assay type: in vivo; details: male rat, single oral administration up to 350 mg/kg
[15] = Clinical pharmacokinetics after 25 mg or 75 mg BID administration; assay type: in vivo, human
[16] = target: T1, PI3K δ; assay: Plasma concentration for suppression of PI3K-δ (PK/PD); parameters: endogenous in cells; host or cells: RAJI (human Burkitt lymphoma)
Target sequence in this assay (O00329 whole entry): as the sequence (O00329 whole entry, species assumed) above
Target sequence in this assay (P27986 whole entry partner): as the sequence (P27986 whole entry partner, species assumed) above

[17] = Plasma protein binding in vitro, monkey; assay type: in vitro ADME; details: all concentrations tested
[18] = Phase 1 study in healthy subjects: pharmacokinetics (single dose, multiple dose, food effect, DDI); assay type: in vivo, human; details: for AUC(0-24): mean (% CV)
[19] = Phase 1 study in healthy subjects: safety and tolerability; assay type: in vivo
Protocol: Serial ECGs were performed at multiple time points after dosing in all study groups.
In addition, a rapid response was observed, assessed as reduction in CD63^+ expression on CCR3^+ basophils in an ex vivo anti-FcεR1 activation assay (FIG. 1-3). […] CD63^+ expression returned to baseline as plasma drug concentrations declined. […] The most common non-procedural AEs occurring in ≧2 subjects were headache (8% vs. 25% PLB), myalgia (6% vs. 8% PLB), and nasopharyngitis (6% vs. 0% PLB). […] No clinical significant findings in safety lab studies of ECGs were observed.

[20] = multiple doses for 2 weeks (n=36)

## C[C@H](Nc1ncnc2[nH]cnc12)c1cc2cccc(Cl)c2c(=O)n1-c1ccccc1 [Compound 292]
[1]
  percent free in plasma compared with human plasma: consistently higher
[2]
  IC50: > 50 µM
[3]
  IC90: 0.361 µg/mL (≈ 0.866 µM)
[4]
  genetic toxicity: no genetic toxicity
[5]
  reduction in migration of CLL cells, % control reduction, median: 23%
[6]
  IC50: > 50 µM
[7]
  dose at which maximal PD response was achieved: 5 mg
[8]
  IC50: > 50 µM
[9]; calculated using 0.5 mg/kg IV dose as reference and AUC0-last
  Foral: 97g'i %
[9]; calculated using 1 mg/kg IV dose as reference and AUC0-last
  Foral: 40% and 40h'i %
[10]
  locomotor activity: Significant decreases
[11]
  distribution into rat tissues: rapid and extensive
[11]; majority of tissues without quantifiable radioactivity at 24 hr
  elimination of radiolabelled Compound 292 from tissues: rapid
[12]; single oral dose of 5, 30, and 150 mg/kg
  effects on hemodynamic or electrocardiographic parameters: No Compound 292-related effects
[12]; up to 150 mg/kg
  waveform abnormalities or arrhythmias: no waveform abnormalities or arrhythmias
25 mg BID (n = 34)
  Any AE: 27
  Any AE, Grade 3: 7
  Any AE, Grade 4: 5
  New Grade 3 ALT: 3
  New Grade 3 ANC: 2
  New Grade 4 ANC: 4
  Related AE: 18
  Related Grade 3 AE: 4/4
  Related Grade 4 AE: 4/4
20 patients, 8-50 mg BID
  new Grade >3 neutropenia: 6 n
  patients with AEs Grade >3: 7 patients
  patients with adverse events (AEs): 13 patients
20 patients, 15 mg dose cohort
  dose limiting toxicity observed to date: Grade 4 neutropenia
55 patients
  discontinuations due to treatment related AEs: three
55 patients, 8-75 mg BID
  DLTs: Grade 4 neutropenia (15 mg BID) and Grade 3 cellulitis (wound infection, 75 mg BID)
  dose-related trends in related Grade 3 or Grade 4 AEs: No dose-related trends
Safety Population (n = 55)
  Any AE: 46
  Any AE, Grade 3: 18
  Any AE, Grade 4: 8
  New Grade 3 ALT: 5
  New Grade 3 ANC: 10
  New Grade 4 ANC: 5
  Related AE: 31
  Related Grade 3 AE: 14
  Related Grade 4 AE: 6
Safety Population (n = 55), all due to disease progression
  Deaths on Study: 3 n
[13]
  adverse effect in micronucleus assay: no direct adverse effect
[14]
  effects on respiratory parameters (respiratory rate, tidal volume, minute volume): no Compound 292-related effects
[15]; 25 mg BID
  mean predose steady state plasma concentration: about 390 ng/ml
[15]; 25 mg or 75 mg BID
  time of maximal plasma concentrations following dosing: around 1 hour
[15]; doses through 75 mg BID
  AUC versus dose: increases proportionally with doses
[15]; human, plasma, oral, both 25 mg and 75 mg BID, read-out: elimination half-life
  half-life: 4 to 5 h
[16]
  IC90: 0.361 µg/mL (≈ 0.866 µM)
[17]
  percent free in plasma compared with human plasma: consistently higher
[18]; DDI portion, 200 mg ql2h ketoconazole
  increase of Cmax in the presence of ketoconazole: approximately 66%
[18]; following 14 days of Q12 h oral administration
  accumulation: less than 2 fold
[18]; healthy subjects, across the dose ranges evaluated
  dose dependence of exposure (Cmax and AUC): increased proportionally to dose; also recorded: dose-proportional pharmacokinetics
[18]; single dose 1 mg
  AUC(0-24): 149 (67) ng*hr/mL
[18]; single dose 2 mg
  AUC(0-24): 289 (43) ng*hr/mL
[18]; single dose 5 mg
  AUC(0-24): 733 (5) ng*hr/mL
[18]; single dose 10 mg
  AUC(0-24): 891 (14) ng*hr/mL
[18]; single dose 20 mg
  AUC(0-24): 2193 (16) ng*hr/mL
[18]; single dose 30 mg
  AUC(0-24): 3263 (38) ng*hr/mL
[19]; healthy subjects
  IgE: No increases in IgE
[19]; healthy subjects, serial ECGs
  QTcF at any assessment: ≤ 500 ms
[19]; healthy subjects, single doses up to 30 mg, multiple doses up to 10 mg daily for 14 days
  tolerability: well tolerated; also recorded: well-tolerated
[19]; [20]
  headache, subjects: 8%
  myalgia, subjects: 6%
  nasopharyngitis, subjects: 6%
